Values quoted from earlier work as cited in patent publication US7183392B2, “Site-specific, covalent bioconjugation of proteins” (Zyomyx, Inc., priority 2000, dated 2007).

How the values were obtained:
[1] = aqueous and polar environments
[2] = target: Helix A / Helix B parallel heterodimer; details: parallel heterodimer of Helix A with Helix B; read-out: dissociation constant
RNA aptamer = details: 11 amino acid sequence, known RNA aptamer

Substance	solubility [1]	Kd [2] [nM]	Kd (RNA aptamer) [nM]
EYQALKKKVAQLKAKNNALKKKVAQLKHKG [Helix B, basic leucine zipper helix based on GCN4, per Wendt et al]	very soluble	~6	
substance P: 11 amino acid long peptide sequence that binds a known RNA aptamer			~190
EYQALEKEVAQLEAENNALEKEVAQLEHEG [Helix A]	very soluble	~6	
